Consider 18 molecules from patent US20250188030A1, “Biphenyl and Phenylpyridine Compounds” (Pfizer Inc., priority 2023, published 2025).

One assay deals with H3K9AC (HT1080 cells). Put plainly: H3K9AC Sandwich ELISA Assay in HT1080 cells (KAT2A primary cell-based screening assay). Details: species or system Human. A digest of the protocol:
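Acetylated H3K9 quantified by luminescent sandwich ELISA (total H3 capture, H3K9ac detection) on HCl lysates of HT1080 cells. Cells had 24 h compound exposure at 37 °C, top concentration 10 µM, 10-point 3-fold series, 0.1% DMSO; IC50 from four-parameter fitting.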
For orientation: In an ELISA, binding on a coated surface is turned into a signal by an enzyme label.

Another assay relates to MM.1S cells. Put plainly: MM1.S 10 Day Proliferation Assay (CellTiter-Glo). Format: cell-based, Human. As for the experimental part:
Human B lymphoblast cell line MM.1S was obtained from American Type Culture Collection (ATCC), Manassas, VA USA, Cat. MM.1S (ATCC® CRL-2974™). Cells were cultured in RPMI (Thermo Fisher Scientific/Gibco Life Technologies Cat. #111875-093) plus 10% (v/v) FBS (Thermo Fisher Scientific/Gibco Life Technologies Cat. #26140-079) and 1% Penicillin-Streptomycin (Thermo Fisher Scientific/Gibco Life Technologies Cat. #15070063) at 37° C. in 5% CO2.
MM1.S cells were trypsinized cell viability count performed, and cells suspended in complete media at 5,556 cells/ml. Cells were then seeded (90 μl/well) into a 96-well round black/clear bottom, ULA (Ultra-Low Attachment surface plate (Corning cat #4520) at a density of 500 cells/well. Cells were then incubated for 16 hours at 37° C. and 5% CO2. Compound dilution plates were prepared in 96-well, clear U-bottom, polypropylene plates (Corning 3365) in 100% DMSO at 10 mM stock concentration in duplicate wells, using a 10-point serial dilution (1:3 dilutions). Compounds were diluted to 1:100 in growth medium. Then 10 μl of diluted compounds were added to each well of the cell plates using a Beckman FX liquid handling system such that the highest compound concentration tested was 10 μM final, with a 0.1% final DMSO concentration in the total volume of 100 μl. Plates were incubated for 10 total days at 37° C. and 5% CO2. Fresh media containing compound was refreshed at 5 days treatment.
Finally, the treatment plates were removed from the incubator and 100 μl of CellTiter-Glo Luminescent reagent was added to each well, and plates were equilibrated in the dark for 30 minutes. Plates were read on the PHERAstar plate reader using the 96-well with Luminescent reading mode. IC50 values were calculated using a four-parameter fit with GraphPad Prism version 9.5.1 or in house modified IDBS ActivityBase data analyzing package.
(In general: Cellular ATP, detected with luciferase, serves as a proxy for viable cell number.)

In a further assay the target is KAT2A (Homo sapiens (Human), UniProt Q92830). Put plainly: KAT2A acetyltransferase biochemical assay (RapidFire mass spectrometry, AcCoA to CoA).
KAT2A, sequence (Q92830 whole entry): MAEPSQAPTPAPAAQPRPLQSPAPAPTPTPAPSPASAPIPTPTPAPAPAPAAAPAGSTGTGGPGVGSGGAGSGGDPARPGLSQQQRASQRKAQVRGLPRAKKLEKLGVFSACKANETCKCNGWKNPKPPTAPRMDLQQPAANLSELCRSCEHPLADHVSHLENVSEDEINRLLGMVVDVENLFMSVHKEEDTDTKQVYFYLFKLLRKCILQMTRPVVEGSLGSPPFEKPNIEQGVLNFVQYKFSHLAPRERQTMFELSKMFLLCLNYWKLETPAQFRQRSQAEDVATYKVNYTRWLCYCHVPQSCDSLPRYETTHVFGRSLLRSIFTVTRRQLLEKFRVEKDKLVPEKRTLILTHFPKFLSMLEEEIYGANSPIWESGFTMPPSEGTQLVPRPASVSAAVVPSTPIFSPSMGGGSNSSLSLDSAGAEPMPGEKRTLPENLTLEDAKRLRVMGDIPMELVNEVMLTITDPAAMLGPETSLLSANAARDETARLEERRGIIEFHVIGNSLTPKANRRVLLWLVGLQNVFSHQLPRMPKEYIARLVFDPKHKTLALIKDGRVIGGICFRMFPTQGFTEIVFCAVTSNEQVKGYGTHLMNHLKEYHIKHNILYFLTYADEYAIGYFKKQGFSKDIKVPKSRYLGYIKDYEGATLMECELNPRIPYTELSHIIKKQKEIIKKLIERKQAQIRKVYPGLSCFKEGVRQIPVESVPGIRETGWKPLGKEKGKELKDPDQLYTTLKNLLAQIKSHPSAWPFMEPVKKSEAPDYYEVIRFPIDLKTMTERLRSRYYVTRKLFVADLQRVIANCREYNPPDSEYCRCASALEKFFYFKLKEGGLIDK
[1] abbreviates: Homo sapiens, HT-1080, H3K9AC sandwich ELISA.
The mark [2] stands for this setting: read-out: KAT2A Ki at 1 μM AcCoA, 5 μM H3 1-21 peptide, 0.5 nM KAT2A, 90-minute reaction.

Like-named read-outs stand apart in the source and are kept apart here.

With `CC(C)c1ccccc1-c1c(CC(=O)O)cccc1O[C@@H]1CC[C@@H](NC(=O)[C@@H]2CC(C)(C)CN2C)C1` (atropisomer, axis not shown) [Example H4, [(1ψ)-2′-(propan-2-yl)-6-({(1R,3R)-3-[(1,4,4-trimethyl-L-prolyl)amino]cyclopentyl}oxy)[1,1′-biphenyl]-2-yl]acetic acid], the IC50 (commonly the point on the concentration scale where inhibition reaches its midpoint) in the assay on H3K9AC (HT1080 cells) (setting [1]) is 112 nM; in the assay on MM.1S cells (Homo sapiens, MM1.S, 240 h), 385 nM. For the same molecule, the Ki (usually the equilibrium dissociation constant of an inhibitor or competing ligand from its target) at KAT2A (setting [2]) came out at 42.8 nM.
Regarding `CN1CC(C)(C)C[C@H]1C(=O)N[C@@H]1CC[C@@H](Oc2cccc(CC(=O)NS(C)(=O)=O)c2-c2ccccc2C2CCC2)C1` (atropisomer, axis not shown) [Example I4, N-[(1R,3R)-3-{[(1ψ)-2′-cyclobutyl-6-{2-[(methanesulfonyl)amino]-2-oxoethyl}[1,1′-biphenyl]-2-yl]oxy}cyclopentyl]-1,4,4-trimethyl-L-prolinamide], the IC50 in the assay with H3K9AC (HT1080 cells) (H3K9AC sandwich ELISA) is 23.2 nM; in the assay on MM.1S cells (Homo sapiens, MM1.S, 240 h) it was 249 nM. Besides, the inhibitory constant (Ki) on KAT2A (setting [2]) was 24.2 nM.
As to `CN1CC(C)(C)C[C@H]1C(=O)N[C@@H]1CC[C@@H](Oc2cccc(CC(=O)NS(N)(=O)=O)c2-c2ccccc2C2CCC2)C1` (atropisomer, axis not shown) [Example I5, N-[(1R,3R)-3-({(1ψ)-2′-cyclobutyl-6-[2-oxo-2-(sulfamoylamino)ethyl][1,1′-biphenyl]-2-yl}oxy)cyclopentyl]-1,4,4-trimethyl-L-prolinamide], the IC50 came to 59 nM in the assay with H3K9AC (HT1080 cells) (setting [1]) and 88.7 nM with MM.1S cells (Homo sapiens, MM1.S, 240 h). Besides, the inhibition constant (Ki) on KAT2A (setting [2]) stood at 13.6 nM.
Take `CC(C)(C(=O)O)c1ccc(O[C@@H]2CC[C@@H](NC(=O)[C@@]3(F)CNC4(CCCC4)C3)C2)c(-c2cccc(F)c2C2CCC2)c1` (single isomer, unassigned) [Example A5]: in the assay on MM.1S cells (Homo sapiens, MM1.S, 240 h), the concentration for half-maximal inhibition (IC50) was determined as 7560 nM. For the same molecule, the Ki at KAT2A (setting [2]) turned out to be 1800 nM.
`CC(C)c1ccccc1-c1cc(C(=O)O)ccc1O[C@@H]1CC[C@@H](NC(=O)[C@@]2(F)CNC3(CCCC3)C2)C1` (single isomer, unassigned) [Example A41]: the IC50 in the assay on H3K9AC (HT1080 cells) (H3K9AC sandwich ELISA) was 3 nM; in the assay on MM.1S cells it was 9.2 nM.
In the assay on H3K9AC (HT1080 cells) (setting [1]), `CCc1c(F)cccc1-c1cc(C(C)(C)C(=O)NS(=O)(=O)C2(C)CC2)ccc1O[C@@H]1CC[C@@H](NC(=O)[C@@]2(F)CNC3(CCC3)C2)C1` [Example C23, (7S)-N-[(1R,3R)-3-({2′-ethyl-3′-fluoro-5-[2-methyl-1-(1-methylcyclopropane-1-sulfonamido)-1-oxopropan-2-yl][1,1′-biphenyl]-2-yl}oxy)cyclopentyl]-7-fluoro-5-azaspiro[3.4]octane-7-carboxamide] gave an IC50 of 91.8 nM. The Ki on KAT2A (setting [2]) amounted to 6.57 nM.
The matching figures for `CCc1ccccc1-c1cc(CC(=O)NS(=O)(=O)C(C)C)ccc1O[C@@H]1CC[C@@H](NC(=O)[C@@]2(F)CNC3(CCC3)C2)C1` [Example C52, (7S)-N-[(1R,3R)-3-({2′-ethyl-5-[2-oxo-2-(propane-2-sulfonamido)ethyl][1,1′-biphenyl]-2-yl}oxy)cyclopentyl]-7-fluoro-5-azaspiro[3.4]octane-7-carboxamide]: 8.5 nM and 0.48 nM.
The molecule `CCS(=O)(=O)NC(=O)Cc1ccc(O[C@@H]2CC[C@@H](NC(=O)[C@@]3(F)CNC4(CCC4)C3)C2)c(-c2ccccc2C(C)C)c1` [Example C53, (7S)-N-[(1R,3R)-3-({5-[2-(ethanesulfonamido)-2-oxoethyl]-2′-(propan-2-yl)[1,1′-biphenyl]-2-yl}oxy)cyclopentyl]-7-fluoro-5-azaspiro[3.4]octane-7-carboxamide] yielded a half-inhibitory concentration (IC50) in the assay with H3K9AC (HT1080 cells) (setting [1]) of 7 nM. Also, the Ki at KAT2A (setting [2]) was found to be 0.1 nM.
In the assay on H3K9AC (HT1080 cells) (setting [1]), `CN1CC(C)(C)C[C@H]1C(=O)N[C@@H]1CC[C@@H](Oc2ccc(C(=O)O)cc2-c2ccccc2C2CCC2)C1` [Example D4, 2′-cyclobutyl-6-({(1R,3R)-3-[(1,4,4-trimethyl-L-prolyl)amino]cyclopentyl}oxy)[1,1′-biphenyl]-3-carboxylic acid] gave a concentration for half-maximal inhibition (IC50) of 88 nM. The Ki on KAT2A (setting [2]) worked out at 25.1 nM.
For the molecule `CN1CC(C)(C)C[C@H]1C(=O)N[C@@H]1CC[C@@H](Oc2ccc(C(=O)O)cc2-c2cccc(F)c2C2CCC2)C1` [Example D6, 2′-cyclobutyl-3′-fluoro-6-({(1R,3R)-3-[(1,4,4-trimethyl-L-prolyl)amino]cyclopentyl}oxy)[1,1′-biphenyl]-3-carboxylic acid], in the assay with H3K9AC (HT1080 cells) (setting [1]), 19 nM corresponded to half-maximal inhibition (IC50). For the same molecule, on KAT2A (setting [2]), the Ki was found to be 1.08 nM.
The matching figures for `CC(C)c1c(F)cccc1-c1cc(C(=O)O)ccc1O[C@@H]1CC[C@@H](NC(=O)[C@@H]2CC(C)(C)CN2C)C1` [Example D7, 3′-fluoro-2′-(propan-2-yl)-6-({(1R,3R)-3-[(1,4,4-trimethyl-L-prolyl)amino]cyclopentyl}oxy)[1,1′-biphenyl]-3-carboxylic acid]: 45.1 nM and 3.57 nM.
The matching figures for `CC(C)c1c(F)cccc1-c1cc(CC(=O)O)ccc1O[C@@H]1CC[C@@H](NC(=O)[C@@H]2CC(C)(C)CN2C)C1` [Example D12, [3′-fluoro-2′-(propan-2-yl)-6-({(1R,3R)-3-[(1,4,4-trimethyl-L-prolyl)amino]cyclopentyl}oxy)[1,1′-biphenyl]-3-yl]acetic acid]: 66.6 nM and 12.4 nM.
Taken in the same sequence, the figures for `[2H]C([2H])([2H])N1CC(C)(C)C[C@H]1C(=O)N[C@@H]1CC[C@@H](Oc2ccc(C(C)(C)C(=O)O)cc2-c2cccc(F)c2C2CCC2)C1` [Example D15, 2-(2′-cyclobutyl-6-{[(1R,3R)-3-{[4,4-dimethyl-1-(^2H3)methyl-L-prolyl]amino}cyclopentyl]oxy}-3′-fluoro[1,1′-biphenyl]-3-yl)-2-methylpropanoic acid] were 83.5 nM and 8.87 nM.
Turning to `CN1CC(C)(C)C[C@H]1C(=O)N[C@@H]1CC[C@@H](Oc2ccc(C(C)(C)c3noc(=O)[nH]3)cc2-c2cccc(F)c2C2CCC2)C1` [Example D17, N-[(1R,3R)-3-({2′-cyclobutyl-3′-fluoro-5-[2-(5-oxo-4,5-dihydro-1,2,4-oxadiazol-3-yl)propan-2-yl][1,1′-biphenyl]-2-yl}oxy)cyclopentyl]-1,4,4-trimethyl-L-prolinamide], the midpoint of inhibition in the assay with H3K9AC (HT1080 cells) (setting [1]), the IC50, lay at 14.4 nM. Further, on KAT2A (setting [2]), the Ki is 2.64 nM.
Consider `CN1CC(C)(C)CC1C(=O)N[C@H]1C[C@H](COc2ccc(CC(=O)NS(C)(=O)=O)cc2-c2cccc(F)c2C2CCC2)C1` (stereo partly drawn) [Example G1, N-[(1r,3S)-3-{[(2′-cyclobutyl-3′-fluoro-5-{2-[(methanesulfonyl)amino]-2-oxoethyl}[1,1′-biphenyl]-2-yl)oxy]methyl}cyclobutyl]-1,4,4-trimethyl-L-prolinamide], for which, in the assay with H3K9AC (HT1080 cells) (setting [1]), half-maximal inhibition (IC50) was put at 55.2 nM. Further, the inhibitory constant (Ki) on KAT2A (setting [2]) is 2.55 nM.
As for `CN(C)S(=O)(=O)NC(=O)c1cccc(O[C@@H]2CC[C@@H](NC(=O)[C@@]3(F)CNC4(CCC4)C3)C2)c1-c1cccc(F)c1C1CCC1` [Example I20, (7S)-N-[(1R,3R)-3-({(1ψ)-2′-cyclobutyl-6-[(dimethylsulfamoyl)carbamoyl]-3′-fluoro[1,1′-biphenyl]-2-yl}oxy)cyclopentyl]-7-fluoro-5-azaspiro[3.4]octane-7-carboxamide], the IC50 in the assay with H3K9AC (HT1080 cells) (H3K9AC sandwich ELISA) was found to be 51.9 nM. Besides, the inhibition constant (Ki) at KAT2A (setting [2]) was determined as 26.3 nM.
`CN1CC(C)(C)C[C@H]1C(=O)N[C@@H]1CC[C@@H](Oc2ccc(-c3nn(C)cc3CC(=O)O)cc2-c2cccc(F)c2C2CCC2)C1` [Example J8, {3-[2′-cyclobutyl-3′-fluoro-6-({(1R,3R)-3-[(1,4,4-trimethyl-L-prolyl)amino]cyclopentyl}oxy)[1,1′-biphenyl]-3-yl]-1-methyl-1H-pyrazol-4-yl}acetic acid] had an IC50 in the assay on H3K9AC (HT1080 cells) (setting [1]) of 2.71 nM. The inhibitory constant (Ki) on KAT2A (setting [2]) came to 0.74 nM.
With `CN1CC(C)(C)C[C@H]1C(=O)N[C@H]1C[C@H](Oc2ccc(C(C)(C)C(=O)O)cc2-c2cccc(F)c2C2CCC2)C[C@H]1O` [Example K1, 2-[2′-cyclobutyl-3′-fluoro-6-({(1S,3R,4S)-3-hydroxy-4-[(1,4,4-trimethyl-L-prolyl)amino]cyclopentyl}oxy)[1,1′-biphenyl]-3-yl]-2-methylpropanoic acid], inhibition in the assay on H3K9AC (HT1080 cells) (setting [1]) was half-maximal at 5.19 nM (IC50). This molecule came in with a Ki at KAT2A (KAT2A Ki at 1 μM AcCoA, 5 μM H3 1-21 peptide, 0.5 nM KAT2A, 90-minute reaction) of 0.15 nM.
